Reference: patent publication US20230226049A1, “ACALABRUTINIB MALEATE DOSAGE FORMS” (Acerta Pharma B.V., priority 2020, published 2023)
≈ marks a conversion by molar mass, not a printed value.

Legend:
[1] = Physicochemical properties of acalabrutinib maleate monohydrate (Table 2)
physchem = conditions: pH 6, water
Method: In addition, the solubility of acalabrutinib maleate was measured in buffered solutions representative of the media used for dissolution of acalabrutinib maleate tablets.

[2] = Two-stage pH shift dissolution of acalabrutinib salts; type: physicochemical; conditions: pH shift method, both starting media; FIGS. 11 and 12
Method: Phosphate, oxalate, and maleate salts of acalabrutinib were evaluated using a two-stage in vitro dissolution method known as a pH shift method. The initial medium was either deionized water or a simulated gastric fluid containing hydrochloric acid and sodium chloride and pH adjusted to 1.8. After the salts were in the initial medium for 30 minutes, the medium was then changed to a FaSSIF-V2 medium by addition of a double strength concentrate to give a final pH of 6.5. The FaSSIF-V2 medium contained a sodium phosphate buffer with sodium chloride, sodium taurocholate, and lecithin. The dissolution testing was conducted using USP dissolution apparatus 2 (paddle) operating at 50 RPM at 37 ± 0.5° C. in 250 mL of medium for first 30 minutes and then in 500 mL of medium post-shift. Samples from the dissolution medium were pulled from the aqueous phase at predetermined time points and assayed by HPLC. FIGS. 2 and 3 show the dissolution profiles of the three salts in the simulated gastric fluid/FaSSIF-V2 media and the deionized water/FaSSIF-V2 media, respectively.
In view of the formulation challenges associated with the physical properties of the phosphate and oxalate salts, the maleate salt was re-tested in the previously described pH shift dissolution method after undergoing particle size reduction. […]

CC#CC(=O)N1CCC[C@H]1c1nc(-c2ccc(C(=O)Nc3ccccn3)cc2)c2c(N)nccn12 [acalabrutinib free base, 4-{8-amino-3-[(2S)-1-(but-2-ynoyl)pyrrolidin-2-yl]imidazo[1,5-a]pyrazin-1-yl}-N-(pyridin-2-yl)benzamide]
pKa ([1]; acidic): 12.1
solubility ([1]; aqueous buffer, @ pH 8 Free Base, read-out: Intrinsic solubility): 48 µg/mL (≈ 103 µM)
solubility (physchem): < 100 µg/mL

CC#CC(=O)N1CCC[C@H]1c1nc(-c2ccc(C(=O)Nc3ccccn3)cc2)c2c(N)nccn12.O=C(O)/C=C\C(=O)O [micronized maleate salt]
Dissolution profile relative to unmilled maleate salt [2]: significantly improved
